Article PMC7866079, “Investigation of Receptor Heteromers Using NanoBRET Ligand Binding” (International Journal of Molecular Sciences, 2021)

How the values were obtained:
AT1-β2AR heteromer = target: T1, AT1-β2AR heteromer (Homo sapiens, UniProt P07550); assay: NanoBRET saturation ligand binding, Receptor-HIT configuration, cells expressing Nluc-AT1 + β2AR; settings: mean ± SEM, n = 8, BODIPY-propranolol saturation, non-specific binding with 10 μM propranolol, read-out: Kd (affinity of binding to AT1-β2AR heteromers)
T1 construct: expressed in transfected cells; host or cells: HEK293FT, transient cotransfection
Method: (§1) All individual experiments were conducted with duplicate wells.
(§2) All data were presented and analyzed using GraphPad Prism 8.0. Saturation binding data were fitted with one-site nonlinear regression for specific binding. Competition binding data were fitted using logarithmic nonlinear regression (three parameter). Statistical analysis was performed as described in the relevant figure/table legends or in the text, with p < 0.05 considered significant.

β2AR = target: T2, β2AR (Homo sapiens, UniProt P07550); assay: NanoBRET saturation ligand binding, cells expressing Nluc-β2AR
T2 construct: host or cells: HEK293FT, transient transfection
Method: as §1, §2

AT1 receptor = target: T3, AT1 receptor (Homo sapiens, UniProt P30556); assay: NanoBRET competition binding of TAMRA-AngII, cells expressing Nluc-AT1; settings: various concentrations of TAMRA-AngII, increasing concentrations of competitor
T3 construct: host or cells: HEK293FT, transient transfection
T3 sequence (P30556 1-359): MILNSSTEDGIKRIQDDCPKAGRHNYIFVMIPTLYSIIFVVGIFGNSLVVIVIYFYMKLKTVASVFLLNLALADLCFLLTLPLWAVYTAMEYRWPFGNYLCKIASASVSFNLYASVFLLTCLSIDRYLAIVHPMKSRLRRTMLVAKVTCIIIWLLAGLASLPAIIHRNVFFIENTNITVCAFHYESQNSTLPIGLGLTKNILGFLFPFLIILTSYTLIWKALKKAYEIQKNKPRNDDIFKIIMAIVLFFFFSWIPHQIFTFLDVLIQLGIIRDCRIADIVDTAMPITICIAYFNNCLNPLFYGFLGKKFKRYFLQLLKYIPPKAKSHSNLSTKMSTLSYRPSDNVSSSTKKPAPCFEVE
Method: Figure 8 Competition binding of TAMRA-AngII to the AT1 receptor and the AT1-AT2 heteromer.
The relative BRET ratio was calculated by normalizing the data, as described in the figure legends. All individual experiments were conducted with duplicate wells.

T2 sequence (P07550 whole entry): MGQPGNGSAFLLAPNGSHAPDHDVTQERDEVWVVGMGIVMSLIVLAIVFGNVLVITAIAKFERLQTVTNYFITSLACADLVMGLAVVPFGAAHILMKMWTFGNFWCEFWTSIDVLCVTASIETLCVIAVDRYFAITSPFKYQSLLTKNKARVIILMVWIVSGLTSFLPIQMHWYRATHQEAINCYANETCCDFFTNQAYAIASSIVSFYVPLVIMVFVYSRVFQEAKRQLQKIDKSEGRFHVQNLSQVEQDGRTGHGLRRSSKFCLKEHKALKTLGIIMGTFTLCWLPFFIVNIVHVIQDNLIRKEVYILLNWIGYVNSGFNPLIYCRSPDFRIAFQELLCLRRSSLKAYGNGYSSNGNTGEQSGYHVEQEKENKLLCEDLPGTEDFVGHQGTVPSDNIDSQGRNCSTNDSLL
T1 sequence (P07550 whole entry, one chain of several): as the sequence (P07550 whole entry) above

Compound | Kd (AT1-β2AR heteromer) [nM] | specific binding to Nluc-β2AR (β2AR; cells expressing Nluc-β2AR only, presence or absence of 10 μM propranolol) | Kd (β2AR; mean ± SEM, n = 4, cells expressing Nluc-β2AR, BODIPY-propranolol saturation, non-specific binding with 10 μM propranolol, read-out: Kd (affinity of binding to β2ARs)) [nM] | displacement of TAMRA-AngII bound to Nluc-AT1 (AT1 receptor)
CC[C@H](C)[C@H](NC(=O)[C@H](Cc1ccc(O)cc1)NC(=O)[C@@H](NC(=O)[C@H](CCCNC(=N)N)NC(=O)[C@H](CC(=O)O)NC(=O)CCCCCNC(=O)COc1ccc(/C=C/c2ccc3n2[B-](F)(F)[N+]2=C(c4cccs4)C=CC2=C3)cc1)C(C)C)C(=O)N[C@@H](Cc1c[nH]cn1)C(=O)N1CCC[C@H]1C(=O)N[C@@H](Cc1ccccc1)C(=O)O [BODIPY-AngII] | 8.8 ± 4 | no specific binding | 3.9 ± 0.5 | 
Cc1cc(Cn2cnc3c2C[C@@H](C(=O)O)N(C(=O)C(c2ccccc2)c2ccccc2)C3)ccc1N(C)C [PD 123319] |  |  |  | unable to see any displacement
